Measurements reported in PubChem BioAssay AID621 (Sanford-Burnham Center for Chemical Genomics, 2007).

Biological target: Bcl-2-related protein A1 (Mus musculus) (UniProt Q07440)
Assay: Bfl-1 inhibitors blocking BH3 peptide binding, confirmation, biochemical, TR-FRET, mouse Bfl-1 (AID 621)
Details: TR-FRET Bfl-1 BH3 peptide binding displacement

Sequence of Bcl-2-related protein A1 (Mus musculus) (Q07440 whole entry, looked up): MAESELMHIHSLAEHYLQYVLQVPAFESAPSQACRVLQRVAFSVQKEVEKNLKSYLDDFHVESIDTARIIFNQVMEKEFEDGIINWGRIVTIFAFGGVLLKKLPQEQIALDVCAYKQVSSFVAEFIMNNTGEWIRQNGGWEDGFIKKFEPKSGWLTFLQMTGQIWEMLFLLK

Structure (SMILES)	IC50 [µM]
CCn1c(SCC(=O)O)nc2sc3c(c2c1=O)CCC3	14.5
Nc1ccc2ncccc2c1N	3.49
